In one assay the test system is N-STZ-1.5 rats. The assay is described as follows: Oral glucose tolerance test using N-STZ-1.5 rats (glucose-lowering effects and insulinotropic action). In kind it is in vivo, rat. Conditions: 3 mg/kg body weight oral, 1 hr before glucose loading 1.5 g/kg, male N-STZ-1.5 rats, n=6; for blood glucose decrease rate (%): glucose AUC (0-60 min) vs control group; for insulin increase rate (fold): insulin AUC (0-60 min) test group/control group. On the procedure: The glucose-lowering effects and insulinotropic action of the compound of the present invention were evaluated by an oral glucose tolerance test using N-STZ-1.5 rats.
Streptozotocin (120 mg/kg) was subcutaneously administered to 1 or 2 days-old male Wistar Kyoto rats to prepare type 2 diabetic model N-STZ-1.5 rats. The rats were allowed free access to standard laboratory chow diet (CE-2, CLEA Japan, Inc.).
Male N-STZ-1.5 rats (25-week-old) were fasted for 15-17 hr, and the body weight was measured. Heparin (Ajinomoto Co., Inc.) as an anticoagulant and aprotinin (SIGMA) as a protease inhibitor were added, blood samples were collected from tail vein. The blood was centrifuged, the concentrations of glucose and triglyceride in plasma were measured, and the rats were divided into each group (n=6) based on these parameters. A 0.5% methylcellulose (control group) or a 0.5% methylcellulose suspension containing a test compound (3 mg/kg body weight) was orally administered to the rats at 5 ml/kg and, 1 hr after the administration, glucose solution (Otsuka Pharmaceutical Co., Ltd.) was orally administered at 1.5 g/7.5 ml/kg. Immediately before (0 min value) and 10, 30 and 60 min after the glucose loading, blood was drawn from the tail vein, centrifuged, and the concentrations of glucose and insulin in plasma were measured. The glucose and triglyceride concentrations were measured by automatic analysis apparatus 7180 (Hitachi, Ltd.), and the insulin concentration was measured by rat insulin radioimmunoassay kit (MIllipore). The area under glucose curve (AUC) and insulin AUC were calculated using the following formulas, and the blood glucose decrease rate (%) and insulin increase rate (fold) were calculated by the following formulas from the obtained AUCs. A statistical significant difference from the control group was analyzed by the Dunnett's test or Steel's test.
Glucose AUC (0-60 Min): {(0 min glucose in plasma)+(10 min glucose in plasma)}×10/2+{(10 min glucose in plasma)+(30 min glucose in plasma)}×20/2+{(30 min glucose in plasma)+(60 min glucose in plasma)}×30/2 insulin AUC (0-60 Min): {(0 min insulin in plasma)+(10 min insulin in plasma)}×10/2+{(10 min insulin in plasma)+(30 min insulin in plasma)}×20/2+{(30 min insulin in plasma)+(60 min insulin in plasma)}×30/2 Blood Glucose Decrease Rate (%): [(test compound administration group glucose AUC/control group glucose AUC)−1]×100 insulin Increase Rate (Fold):
test compound administration group insulin AUC/control group insulin AUC

The target of the next assay is T1, human GPR40 (Homo sapiens, UniProt O14842).
T1 construct: expressed in transfected cells
The assay is described as follows: Evaluation of human GPR40 agonist activity with increase in intracellular Ca2+ concentration as an index (FLIPR). In kind it is cell-based. Conditions: test compound 1 μM; CHO(dhfr−) cells stably expressing human GPR40; 100% = 10 μM compound of Example 153, 0% = DMSO. The essentials:
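CHO(dhfr−) cells stably expressing full-length human GPR40 were loaded with Ca2+ probe for 1 h at room temperature, then given test compound at 1 μM final. Fluorescence was followed on FLIPR, with activity scaled to a reference agonist at 10 μM (100%) and DMSO (0%).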

Marks after values point to notes of the source that are not given here.

T1 sequence (O14842 whole entry): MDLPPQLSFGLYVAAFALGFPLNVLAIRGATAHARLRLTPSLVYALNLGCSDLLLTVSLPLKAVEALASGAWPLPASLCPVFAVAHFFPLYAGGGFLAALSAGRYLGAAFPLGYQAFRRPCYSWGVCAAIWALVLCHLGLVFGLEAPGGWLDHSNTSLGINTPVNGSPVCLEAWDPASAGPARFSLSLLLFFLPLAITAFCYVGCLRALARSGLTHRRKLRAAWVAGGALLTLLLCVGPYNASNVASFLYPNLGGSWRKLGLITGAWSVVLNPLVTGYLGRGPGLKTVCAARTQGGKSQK

For `COc1ccc(C(=O)N(CC(C)(C)F)c2cc(C)ccn2)c(N2CCC(COc3cc(C(CC(=O)O)C4CC4)ccn3)CC2)c1` (centres unmarked) [Example 185, 3-cyclopropyl-3-(2-((1-(2-((2-fluoro-2-methylpropyl)(4-methylpyridin-2-yl)carbamoyl)-5-methoxyphenyl)piperidin-4-yl)methoxy)pyridin-4-yl)propanoic acid], in the assay with N-STZ-1.5 rats, the “blood glucose decrease rate (%)” value was 30.8^$ % and the “insulin increase rate (fold)” value is on record as 1.6 fold.
For `COc1ccc(C(=O)N(CC(C)(C)C)c2cccc(C)n2)c(N2CCC(COc3cc([C@@H](CC(=O)O)C4CC4)ccn3)CC2)c1` [Example 245, (3S)-3-cyclopropyl-3-(2-((1-(2-((2,2-dimethylpropyl)(6-methylpyridin-2-yl)carbamoyl)-5-methoxyphenyl)piperidin-4-yl)methoxy)pyridin-4-yl)propanoic acid], the “Activity (human GPR40 agonist activity)” value at human GPR40 is reported as 102%. Moreover, in the assay on N-STZ-1.5 rats, the “blood glucose decrease rate (%)” value is 44.5^$ % and the “insulin increase rate (fold)” value is listed as 2.1** fold.
`COc1ccc(C(=O)N(CC(C)(C)C)c2nc(C)cc(C)n2)c(N2CCC(COc3cc([C@@H](CC(=O)O)C4CC4)ccn3)CC2)c1` [Example 246, (3S)-3-cyclopropyl-3-(2-((1-(2-((2,2-dimethylpropyl)(4,6-dimethylpyrimidin-2-yl)carbamoyl)-5-methoxyphenyl)piperidin-4-yl)methoxy)pyridin-4-yl)propanoic acid]: the activation at 1 µM at human GPR40 is 103%. For the same compound, in the assay on N-STZ-1.5 rats, the “blood glucose decrease rate (%)” value is on record as 42.7^$ % and the “insulin increase rate (fold)” value was 2.1** fold.
At human GPR40, `COc1ccc(C(=O)N(CC(C)(C)C)c2ccccn2)c(N2CCC(COc3cc([C@@H](CC(=O)O)C4CC4)ccn3)CC2)c1` [Example 247, (3S)-3-cyclopropyl-3-(2-((1-(2-((2,2-dimethylpropyl)(pyridin-2-yl)carbamoyl)-5-methoxyphenyl)piperidin-4-yl)methoxy)pyridin-4-yl)propanoic acid] registered an activation at 1 µM of 102%. In the assay with N-STZ-1.5 rats, the “blood glucose decrease rate (%)” value is given as 41.5^$ % and the “insulin increase rate (fold)” value is 2.0** fold.

The values above are taken from US9776962B2, “Aromatic compounds with GPR40 agonistic activity” (TAKEDA PHARMACEUTICAL COMPANY LIMITED, priority 2013, dated 2017).
